Article PMC4496781, “Functional Roles of Aromatic Residues and Helices of Papiliocin in its Antimicrobial and Anti-inflammatory Activities” (Scientific Reports, 2015)
Values after ≈ are worked out from the molar mass of the structure shown. Like-named read-outs stand apart in the source and are kept apart here. Ends that are not written are not given here.

What was measured:
Eenterococcus faecalis = test system: Eenterococcus faecalis
Procedure: (§1) MICs of the peptides against six standard bacteria and four multidrug-resistant bacteria were determined by a broth microdilution assay as described previously. […] Cytotoxicities against mammalian cells were measured against human RBCs, mouse macrophage-derived RAW264.7 cells, and fibroblast NIH-3T3 cells. The anti-inflammatory activities of the peptides were examined by inhibiting nitrite production in LPS-stimulated RAW264.7 cells.

MDRAB 12035(R) = details: broth microdilution, 16 h; unit not given
Procedure: (§2) We examined the antimicrobial activities of the peptides against multidrug-resistant bacterial strains, including four gram-negative species (S. typhimurium 8009(R), E. coli 1229(R), P. aeruginosa 2095(R), and A. baumannii 12035(R); Table 3).
as §1

MDREC 1229(R) = details: 16 h
Procedure: as §2, §1

MDRPA 2095(R) = details: 16 h
Procedure: as §2, §1

MDRST 8009(R) = details: broth microdilution, 16 h; unit not given
Procedure: as §2, §1

[1] = test system: gram-negative bacteria (E. coli, S. typhimurium, P. aeruginosa); details: for Therapeutic Index (MHC/GM), gram-negative: ratio MHC (μM) over GM of MIC (μM)
Procedure: (§3) This property is assessed by the therapeutic index which can be defined as a ratio of the […] against human hRBCs to the MIC against bacterial cells.
as §1

[2] = test system: gram-positive bacteria (B. subtilis, E. faecalis, S. aureus); details: for Therapeutic Index (MHC/GM), gram-positive: ratio MHC (μM) over GM of MIC (μM)
Procedure: as §3, §1

human erythrocytes = assay: Hemolytic activity; assay type: cell-based; details: human RBCs; 200 μM entered when no detectable hemolysis at 100 μM
Procedure: (§4) We examined the cytotoxicity against human erythrocytes. […] Next, we examined the cytotoxicity of the peptides against RAW264.7 macrophage cells. We assessed the effects of the peptides on cell growth by measuring mitochondrial reduction of MTT to a colored product in live cells. […] On the other hand, PapC produced high cytotoxicity against RAW264.7 cells, even at low concentrations. […] In case of PapN-2A, Pap-5A, and Pap-2A5A, the cell survival rates at a peptide concentration of 100 μM were approximately 90% or more. Thus, Trp^2 and Phe^5 are important for the cytotoxic activity of papiliocin toward RAW264.7 cells.
as §1

[3] = test system: RAW264.7 macrophage cells; assay: Cytotoxicity, MTT; assay type: cell-based, mouse
Procedure: as §4, §1

[4] = Calcein leakage from zwitterionic LUVs; details: EYPC/CH 10:1 LUVs, mimic human erythrocytes
Procedure: Figure 5 Dose-response curves of calcein leakage from (A) egg yolk phosphatidylcholine (EYPC)/egg yolk phosphatidylglycerol (EYPG) (7:3, w:w) and (B) EYPC/cholesterol (CH) large unilamellar vesicles (LUVs; 10:1, w-w) induced by the peptides. Calcein leakage was measured 2 min after the addition of papiliocin. The lipid concentration used in the leakage experiments was 64 μM.
None of the peptides containing the N-terminal helix permeated zwitterionic vesicles (10:1 [w/w] EYPC/CH) effectively. Zwitterionic vesicles mimic the outer leaflet components of human erythrocytes.
In order to investigate the mode of action, membrane permeabilization ability was monitored using a model membrane and E.coli. Calcein leakage induced by the peptides was measured in egg yolk phosphatidylcholine (EYPC)/egg yolk phosphatidylglycerol (EYPG) (7:3, w/w) and EYPC/cholesterol (CH) large unilamellar vesicles (LUVs; 10:1, w:w) as described previously. The depolarization assay was conducted with intact E. coli bacteria (KCTC 1682) as well as E. coli spheroplasts (ATCC 25922)[51][52]. The ability of peptide to depolarize the membrane is indicated by an increase in the fluorescence of diSC3-5. […] The membrane potential dissipating activity of the peptides can be calculated as follows: […]

Bacillus subtilis = details: 16 h
Procedure: as §1

Escherichia coli = details: 16 h
Procedure: as §1

Pseudomonas aeruginosa = details: 16 h
Procedure: as §1

Salmonella typhimurium = details: murium, 16 h
Procedure: as §1

Staphylococcus aureus = details: 16 h
Procedure: as §1

[5] = broth microdilution, unit not given

| Molecule | MIC, MDRAB 12035(R) (MDRAB 12035(R)) [µM] | MIC, MDRST 8009(R) (MDRST 8009(R)) [µM] | Therapeutic Index (MHC/GM), gram-negative [1] | Therapeutic Index (MHC/GM), gram-positive [2] | MIC, Bacillus subtilis (Bacillus subtilis) [µM] | MIC, Eenterococcus faecalis (Eenterococcus faecalis; E, 16 h) [µM] | MIC, Escherichia coli (Escherichia coli) [µM] | MIC, Pseudomonas aeruginosa (Pseudomonas aeruginosa) [µM] | MIC, Salmonella typhimurium (Salmonella typhimurium) [µM] | MIC, Staphylococcus aureus (Staphylococcus aureus) [µM] | MIC, MDREC 1229(R) (MDREC 1229(R)) [µM] | MIC, MDRPA 2095(R) (MDRPA 2095(R)) [µM] | GM of the MIC values, gram-negative ([1]; 16 h) [µM] | GM of the MIC values, gram-positive ([2]; 16 h) [µM] | further results |
| --- | --- | --- | --- | --- | --- | --- | --- | --- | --- | --- | --- | --- | --- | --- | --- |
| CC[C@H](C)[C@H](NC(=O)CN)C(=O)NCC(=O)N[C@@H](C)C(=O)N[C@H](C(=O)N[C@@H](CC(C)C)C(=O)N[C@@H](CCCCN)C(=O)N[C@H](C(=O)N[C@@H](CC(C)C)C(=O)N[C@H](C(=O)N[C@H](C(=O)NCC(=O)N[C@@H](CC(C)C)C(=O)N1CCC[C@H]1C(=O)N[C@@H](C)C(=O)N[C@@H](CC(C)C)C(=O)N[C@H](C(=O)N[C@@H](CO)C(=O)N[C@@H](Cc1c[nH]c2ccccc12)C(=O)N[C@H](C(=O)N[C@@H](CCCCN)C(=O)N[C@@H](CCCNC(=N)N)C(=O)N[C@@H](CCCCN)C(=O)N[C@@H](CCCNC(=N)N)C(=O)N[C@@H](CCC(N)=O)C(=O)N[C@@H](CCC(N)=O)C(N)=O)[C@@H](C)CC)[C@@H](C)CC)[C@@H](C)O)[C@@H](C)O)C(C)C)C(C)C [Melittin, reference compound] | 4.00 (≈ 11.4 µg/mL) | 8.00 (≈ 22.8 µg/mL) | 0.098 | 0.117 |  |  |  |  |  |  |  |  |  |  | MIC, Eenterococcus faecalis (Eenterococcus faecalis; broth microdilution, 16 h incubation, three independent experiments in triplicate, SD 14.0%): 2.00 µM (≈ 5.69 µg/mL); MIC, MDREC 1229(R) (MDREC 1229(R); [5]): 8.00 µM (≈ 22.8 µg/mL); MIC, MDRPA 2095(R) (MDRPA 2095(R); [5]): 2.00 µM (≈ 5.69 µg/mL); GM of the MIC values, gram-negative ([1]; three gram-negative standard strains, 256 μM used when no activity at 128 μM): 4.00 µM; GM of the MIC values, gram-positive ([2]; three gram-positive standard strains, 256 μM used when no activity at 128 μM): 3.33 µM; MHC (minimal peptide concentration that produces hemolysis) (human erythrocytes): 0.391 µM; cytotoxicity at the peptide's MIC ([3]; hRBCs and RAW264.7 cells (Fig. 4A,B)): high cytotoxicity at its MIC; permeabilization of zwitterionic vesicles, in words [4]: membrane-disrupting activities against both negatively charged and zwitterionic vesicles |
| RAKIAKKIEKVGRNVRDGIIKA-NH2 [PapN-2A5A] | 32.0 | 8.00 | 42.9 | 0.939 | >128 | >128 | 2.00 | 8.00 | 4.00 | 128 | 4.00 | 16.0 | 4.67 | 213 |  |
| RWKIFKKIEKVGRNVRDGIIKAGPAVAVVGQAATVVK-NH2 [Papiliocin] | 0.500 | 0.500 |  | 5.36 | 16.0 | 64.0 | 0.250 | 0.500 | 0.500 | 32.0 | 0.500 | 1.00 | 0.417 | 37.3 | Therapeutic Index (MHC/GM), gram-positive ([2]; listed as papiliocin): 12.0; cytotoxicity at the peptide's MIC [3]: not toxic at their MICs |
| RWKIFKKIEKVGRNVRDGIIKA-NH2 [PapN] | 2.00 | 2.00 | 120 |  | 8.00 | 64.0 | 1.00 | 2.00 | 2.00 | 8.00 | 4.00 | 2.00 | 1.67 | 26.7 |  |
| RAKIAKKIEKVGRNVRDGIIKAGPAVAVVGQAATVVK-NH2 [Papiliocin-2A5A] | 0.500 | 4.00 |  | 0.939 | 128 | >128 | 0.500 | 0.500 | 1.00 | >128 | 2.00 | 1.00 | 0.667 | 213 |  |
